Measured values from ChEMBL document CHEMBL4507310, “Data for DCP probe A-1211212” (2021).

Key:
[1] = biological target: Mitogen-activated protein kinase 7 (Homo sapiens) (UniProt Q13164); conditions: Compound concentration 1000.0 nM
[2] = biological target: Adenosine receptor A3 (Homo sapiens) (UniProt P0DMS8); assay: A3 (h) Eurofins-Cerep binding assay; design: ligand concentration 0.15 nM; conditions: filed as agonist, Compound concentration 10.0 uM
[3] = test system: Fibroblast growth factor receptor 3 (Homo sapiens), P22607 [G697C]; conditions: Compound concentration 1000.0 nM
[4] = biological target: Mitogen-activated protein kinase kinase kinase 3 (Homo sapiens) (UniProt Q99759); conditions: Compound concentration 1000.0 nM
[5] = biological target: T1, Muscarinic acetylcholine receptor M1 (Homo sapiens) (UniProt P11229); conditions: Compound concentration 10.0 uM
T1 sequence (whole entry): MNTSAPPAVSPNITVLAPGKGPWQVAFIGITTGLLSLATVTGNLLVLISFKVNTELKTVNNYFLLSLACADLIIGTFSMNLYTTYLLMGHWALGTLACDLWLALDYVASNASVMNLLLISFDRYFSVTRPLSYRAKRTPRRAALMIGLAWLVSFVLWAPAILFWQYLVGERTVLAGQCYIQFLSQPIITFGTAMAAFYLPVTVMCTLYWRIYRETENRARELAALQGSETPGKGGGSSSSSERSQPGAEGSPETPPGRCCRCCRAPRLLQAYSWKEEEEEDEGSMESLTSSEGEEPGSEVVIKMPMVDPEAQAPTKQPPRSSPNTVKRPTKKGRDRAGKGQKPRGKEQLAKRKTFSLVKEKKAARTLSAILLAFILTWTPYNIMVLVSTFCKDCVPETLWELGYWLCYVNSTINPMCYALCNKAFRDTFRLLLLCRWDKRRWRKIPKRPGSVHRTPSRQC

[6] = biological target: Serine/threonine-protein kinase TNNI3K (Homo sapiens) (UniProt Q59H18); conditions: Compound concentration 1000.0 nM
[7] = biological target: Serine/threonine-protein kinase 33 (Homo sapiens) (UniProt Q9BYT3); conditions: Compound concentration 1000.0 nM
[8] = biological target: Serine/threonine-protein kinase 25 (Homo sapiens) (UniProt O00506); conditions: Compound concentration 1000.0 nM
[9] = biological target: Type-2 angiotensin II receptor (Homo sapiens) (UniProt P50052); assay: AT2 (h) Eurofins-Cerep binding assay; design: ligand concentration 0.01 nM; conditions: filed as agonist, Compound concentration 10.0 uM
[10] = test system: Phosphatidylinositol 4,5-bisphosphate 3-kinase catalytic subunit alpha isoform (Homo sapiens), P42336 [E542K]; conditions: Compound concentration 1000.0 nM
[11] = biological target: Activin receptor type-1-like (Homo sapiens) (UniProt P37023); conditions: Compound concentration 1000.0 nM
[12] = biological target: Phosphatidylinositol 3-kinase catalytic subunit type 3 (Homo sapiens) (UniProt Q8NEB9); conditions: Compound concentration 1000.0 nM
[13] = biological target: Serine/threonine-protein kinase Nek5 (Homo sapiens) (UniProt Q6P3R8); conditions: Compound concentration 1000.0 nM
[14] = biological target: Tyrosine-protein kinase receptor Tie-1 (Homo sapiens) (UniProt P35590); conditions: Compound concentration 1000.0 nM
[15] = biological target: Death-associated protein kinase 3 (Homo sapiens) (UniProt O43293); conditions: Compound concentration 1000.0 nM
[16] = biological target: Tyrosine-protein kinase Fer (Homo sapiens) (UniProt P16591); conditions: Compound concentration 1000.0 nM
[17] = biological target: Cyclin-dependent kinase 4 (Homo sapiens) (UniProt P11802); conditions: Compound concentration 1000.0 nM
[18] = biological target: Ribosomal protein S6 kinase alpha-1 (Homo sapiens) (UniProt Q15418); conditions: Compound concentration 1000.0 nM
[19] = biological target: Serine/threonine-protein kinase BRSK2 (Homo sapiens) (UniProt Q8IWQ3); conditions: Compound concentration 1000.0 nM
[20] = biological target: Tyrosine-protein kinase ITK/TSK (Homo sapiens) (UniProt Q08881); conditions: Compound concentration 1000.0 nM
[21] = biological target: Interleukin-1 receptor-associated kinase 1 (Homo sapiens) (UniProt P51617); conditions: Compound concentration 1000.0 nM
[22] = biological target: Serine/threonine-protein kinase Nek2 (Homo sapiens) (UniProt P51955); conditions: Compound concentration 1000.0 nM
[23] = biological target: GABA-A receptor; anion channel (Rattus norvegicus) (UniProt O09028+P15431+P18506+P18508+P19969+P20236+P23574+P23576+P28471+P28473+P30191+P62813+P63079+P63138+Q91ZM7+Q9ES14); conditions: Compound concentration 10.0 uM
[24] = biological target: Serine/threonine-protein kinase Nek3 (Homo sapiens) (UniProt P51956); conditions: Compound concentration 1000.0 nM
[25] = biological target: Homeodomain-interacting protein kinase 4 (Homo sapiens) (UniProt Q8NE63); conditions: Compound concentration 1000.0 nM
[26] = biological target: Serine/threonine-protein kinase tousled-like 1 (Homo sapiens) (UniProt Q9UKI8); conditions: Compound concentration 1000.0 nM
[27] = biological target: Tyrosine-protein kinase Lyn (Homo sapiens) (UniProt P07948); conditions: Compound concentration 1000.0 nM
[28] = test system: Epidermal growth factor receptor (Homo sapiens), P00533 [UNDEFINED MUTATION]; conditions: Compound concentration 1000.0 nM
[29] = biological target: Insulin-like growth factor 1 receptor (Homo sapiens) (UniProt P08069); conditions: Compound concentration 1000.0 nM
[30] = biological target: T2, 5-hydroxytryptamine receptor 3A (Homo sapiens) (UniProt P46098); conditions: Compound concentration 10.0 uM
T2 sequence (whole entry): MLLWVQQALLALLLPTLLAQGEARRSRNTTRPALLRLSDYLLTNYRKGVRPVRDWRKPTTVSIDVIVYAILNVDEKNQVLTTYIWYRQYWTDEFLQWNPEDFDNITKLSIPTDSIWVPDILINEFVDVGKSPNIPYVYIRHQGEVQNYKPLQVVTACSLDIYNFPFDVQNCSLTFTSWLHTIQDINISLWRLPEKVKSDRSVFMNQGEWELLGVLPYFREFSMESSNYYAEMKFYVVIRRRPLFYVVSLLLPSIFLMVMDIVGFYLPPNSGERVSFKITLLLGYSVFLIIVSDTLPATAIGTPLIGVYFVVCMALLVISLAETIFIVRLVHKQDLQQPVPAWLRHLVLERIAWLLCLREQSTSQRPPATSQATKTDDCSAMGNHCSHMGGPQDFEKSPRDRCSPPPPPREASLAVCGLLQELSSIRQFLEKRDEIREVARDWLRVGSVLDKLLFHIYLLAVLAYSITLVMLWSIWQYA

[31] = biological target: Cyclin-dependent kinase 13 (Homo sapiens) (UniProt Q14004); conditions: Compound concentration 1000.0 nM

Sequence of Homeodomain-interacting protein kinase 4 (Homo sapiens) (Q8NE63 whole entry): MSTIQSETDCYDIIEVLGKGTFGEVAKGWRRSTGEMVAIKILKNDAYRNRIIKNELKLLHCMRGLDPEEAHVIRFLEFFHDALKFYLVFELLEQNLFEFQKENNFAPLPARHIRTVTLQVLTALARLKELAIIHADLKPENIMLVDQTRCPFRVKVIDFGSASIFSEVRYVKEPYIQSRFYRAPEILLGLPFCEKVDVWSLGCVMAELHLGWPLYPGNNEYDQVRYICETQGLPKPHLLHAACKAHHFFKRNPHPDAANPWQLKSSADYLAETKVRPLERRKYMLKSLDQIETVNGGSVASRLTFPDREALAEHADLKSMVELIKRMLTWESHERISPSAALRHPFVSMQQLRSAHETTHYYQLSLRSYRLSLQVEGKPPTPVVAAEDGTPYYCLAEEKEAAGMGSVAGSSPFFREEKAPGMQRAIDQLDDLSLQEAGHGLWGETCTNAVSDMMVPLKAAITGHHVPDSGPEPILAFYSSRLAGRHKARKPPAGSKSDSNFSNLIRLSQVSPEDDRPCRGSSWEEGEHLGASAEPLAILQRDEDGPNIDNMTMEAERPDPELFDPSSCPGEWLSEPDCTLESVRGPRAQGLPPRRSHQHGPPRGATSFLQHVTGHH
Sequence of Tyrosine-protein kinase Lyn (Homo sapiens) (P07948 2-512 limits assumed): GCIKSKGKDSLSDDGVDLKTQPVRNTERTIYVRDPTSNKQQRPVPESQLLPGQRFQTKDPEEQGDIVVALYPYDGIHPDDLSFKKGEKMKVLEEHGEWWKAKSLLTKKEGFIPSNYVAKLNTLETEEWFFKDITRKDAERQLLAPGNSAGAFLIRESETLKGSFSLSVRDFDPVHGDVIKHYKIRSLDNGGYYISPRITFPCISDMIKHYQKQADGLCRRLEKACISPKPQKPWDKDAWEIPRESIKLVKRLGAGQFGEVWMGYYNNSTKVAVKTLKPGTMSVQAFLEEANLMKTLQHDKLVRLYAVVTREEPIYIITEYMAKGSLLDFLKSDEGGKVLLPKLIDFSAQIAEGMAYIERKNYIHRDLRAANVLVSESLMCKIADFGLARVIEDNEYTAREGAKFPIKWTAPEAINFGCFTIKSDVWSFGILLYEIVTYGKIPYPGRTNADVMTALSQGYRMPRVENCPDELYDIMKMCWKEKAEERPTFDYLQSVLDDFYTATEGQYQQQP
Sequence of Fibroblast growth factor receptor 3 (Homo sapiens), P22607 [G697C] (P22607 whole entry G697C): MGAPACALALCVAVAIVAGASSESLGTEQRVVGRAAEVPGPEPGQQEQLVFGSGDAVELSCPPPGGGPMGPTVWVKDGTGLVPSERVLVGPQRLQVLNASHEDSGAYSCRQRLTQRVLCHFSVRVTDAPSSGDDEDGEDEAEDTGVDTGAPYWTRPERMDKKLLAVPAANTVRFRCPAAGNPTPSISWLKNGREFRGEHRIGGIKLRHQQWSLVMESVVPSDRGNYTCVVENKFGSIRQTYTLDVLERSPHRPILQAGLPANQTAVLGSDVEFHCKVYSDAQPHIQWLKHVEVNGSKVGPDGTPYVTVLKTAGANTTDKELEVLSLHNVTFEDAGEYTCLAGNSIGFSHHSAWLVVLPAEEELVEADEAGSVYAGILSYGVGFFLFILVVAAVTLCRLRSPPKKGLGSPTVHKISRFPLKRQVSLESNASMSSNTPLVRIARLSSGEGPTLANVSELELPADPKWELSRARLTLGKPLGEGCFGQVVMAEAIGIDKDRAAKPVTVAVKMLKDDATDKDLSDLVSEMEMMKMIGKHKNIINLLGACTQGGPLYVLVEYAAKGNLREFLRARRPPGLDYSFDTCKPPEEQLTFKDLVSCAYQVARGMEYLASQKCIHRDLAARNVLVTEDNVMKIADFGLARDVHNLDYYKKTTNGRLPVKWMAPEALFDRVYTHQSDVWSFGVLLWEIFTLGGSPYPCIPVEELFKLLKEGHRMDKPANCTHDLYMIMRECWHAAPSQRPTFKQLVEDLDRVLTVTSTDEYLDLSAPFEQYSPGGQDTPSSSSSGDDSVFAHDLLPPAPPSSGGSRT
Sequence of Serine/threonine-protein kinase Nek3 (Homo sapiens) (P51956 whole entry): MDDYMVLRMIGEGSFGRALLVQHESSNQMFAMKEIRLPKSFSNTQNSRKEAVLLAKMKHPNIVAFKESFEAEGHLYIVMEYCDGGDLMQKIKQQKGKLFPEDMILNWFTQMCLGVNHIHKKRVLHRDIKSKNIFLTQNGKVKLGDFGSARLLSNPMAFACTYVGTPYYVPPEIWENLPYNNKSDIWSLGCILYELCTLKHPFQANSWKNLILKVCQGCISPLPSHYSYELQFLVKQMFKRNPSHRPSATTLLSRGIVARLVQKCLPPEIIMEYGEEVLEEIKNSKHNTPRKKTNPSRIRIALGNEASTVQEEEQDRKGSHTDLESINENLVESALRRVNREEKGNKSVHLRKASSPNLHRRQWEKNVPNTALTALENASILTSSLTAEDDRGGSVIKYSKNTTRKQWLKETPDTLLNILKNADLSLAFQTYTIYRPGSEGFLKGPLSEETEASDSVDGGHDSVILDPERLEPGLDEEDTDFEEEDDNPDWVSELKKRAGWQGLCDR
Sequence of Serine/threonine-protein kinase BRSK2 (Homo sapiens) (Q8IWQ3 whole entry): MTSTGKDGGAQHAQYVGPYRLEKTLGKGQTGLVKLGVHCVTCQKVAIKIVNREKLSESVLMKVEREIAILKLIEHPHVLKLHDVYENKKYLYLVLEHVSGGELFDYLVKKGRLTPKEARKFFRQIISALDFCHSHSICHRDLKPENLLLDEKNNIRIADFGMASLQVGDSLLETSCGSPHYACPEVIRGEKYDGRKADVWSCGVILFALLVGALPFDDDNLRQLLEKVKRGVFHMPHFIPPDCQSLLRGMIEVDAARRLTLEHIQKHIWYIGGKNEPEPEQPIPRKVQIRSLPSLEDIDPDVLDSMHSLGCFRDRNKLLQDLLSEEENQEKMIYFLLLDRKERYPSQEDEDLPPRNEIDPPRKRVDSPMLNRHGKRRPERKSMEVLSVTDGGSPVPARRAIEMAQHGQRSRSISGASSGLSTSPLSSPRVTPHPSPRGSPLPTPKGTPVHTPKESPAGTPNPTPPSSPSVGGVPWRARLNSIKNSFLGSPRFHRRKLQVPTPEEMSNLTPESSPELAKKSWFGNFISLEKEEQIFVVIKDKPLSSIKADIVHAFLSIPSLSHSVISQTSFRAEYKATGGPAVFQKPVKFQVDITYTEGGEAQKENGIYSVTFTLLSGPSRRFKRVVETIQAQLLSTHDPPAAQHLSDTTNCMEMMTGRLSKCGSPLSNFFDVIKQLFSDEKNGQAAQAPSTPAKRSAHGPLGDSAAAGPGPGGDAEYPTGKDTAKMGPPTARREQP
Sequence of Death-associated protein kinase 3 (Homo sapiens) (O43293 whole entry, looked up): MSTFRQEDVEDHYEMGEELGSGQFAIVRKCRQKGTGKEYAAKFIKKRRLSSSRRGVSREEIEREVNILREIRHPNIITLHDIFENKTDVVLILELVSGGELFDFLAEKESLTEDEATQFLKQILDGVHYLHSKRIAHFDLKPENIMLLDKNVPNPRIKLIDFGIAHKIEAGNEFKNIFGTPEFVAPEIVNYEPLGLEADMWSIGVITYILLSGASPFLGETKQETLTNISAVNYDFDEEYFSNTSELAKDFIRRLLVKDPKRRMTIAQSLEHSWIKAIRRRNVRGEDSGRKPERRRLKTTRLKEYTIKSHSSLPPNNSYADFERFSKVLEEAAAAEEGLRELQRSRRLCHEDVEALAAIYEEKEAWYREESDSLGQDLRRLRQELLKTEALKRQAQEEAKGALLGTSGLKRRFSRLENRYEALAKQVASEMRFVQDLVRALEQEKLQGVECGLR
Sequence of Insulin-like growth factor 1 receptor (Homo sapiens) (P08069 31-736 limits assumed): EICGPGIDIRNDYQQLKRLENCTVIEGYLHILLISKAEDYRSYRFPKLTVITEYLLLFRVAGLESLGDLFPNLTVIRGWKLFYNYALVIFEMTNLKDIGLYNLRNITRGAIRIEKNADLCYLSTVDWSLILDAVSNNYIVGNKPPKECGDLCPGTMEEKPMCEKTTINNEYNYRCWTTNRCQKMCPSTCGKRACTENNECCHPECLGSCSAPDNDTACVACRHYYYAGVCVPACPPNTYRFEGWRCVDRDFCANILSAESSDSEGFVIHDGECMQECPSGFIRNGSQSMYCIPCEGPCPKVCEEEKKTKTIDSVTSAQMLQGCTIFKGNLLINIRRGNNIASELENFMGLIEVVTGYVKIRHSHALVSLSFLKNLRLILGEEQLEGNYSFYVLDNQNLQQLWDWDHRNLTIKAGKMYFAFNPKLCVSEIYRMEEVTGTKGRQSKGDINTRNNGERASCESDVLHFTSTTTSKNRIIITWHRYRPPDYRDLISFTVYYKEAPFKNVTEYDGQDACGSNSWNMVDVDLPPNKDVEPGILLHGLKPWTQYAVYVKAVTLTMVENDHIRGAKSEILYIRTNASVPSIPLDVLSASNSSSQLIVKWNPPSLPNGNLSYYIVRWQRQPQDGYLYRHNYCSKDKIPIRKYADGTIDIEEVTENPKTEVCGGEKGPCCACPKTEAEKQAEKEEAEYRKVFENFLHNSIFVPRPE
Sequence of Insulin-like growth factor 1 receptor (Homo sapiens) (P08069 741-1367 limits assumed): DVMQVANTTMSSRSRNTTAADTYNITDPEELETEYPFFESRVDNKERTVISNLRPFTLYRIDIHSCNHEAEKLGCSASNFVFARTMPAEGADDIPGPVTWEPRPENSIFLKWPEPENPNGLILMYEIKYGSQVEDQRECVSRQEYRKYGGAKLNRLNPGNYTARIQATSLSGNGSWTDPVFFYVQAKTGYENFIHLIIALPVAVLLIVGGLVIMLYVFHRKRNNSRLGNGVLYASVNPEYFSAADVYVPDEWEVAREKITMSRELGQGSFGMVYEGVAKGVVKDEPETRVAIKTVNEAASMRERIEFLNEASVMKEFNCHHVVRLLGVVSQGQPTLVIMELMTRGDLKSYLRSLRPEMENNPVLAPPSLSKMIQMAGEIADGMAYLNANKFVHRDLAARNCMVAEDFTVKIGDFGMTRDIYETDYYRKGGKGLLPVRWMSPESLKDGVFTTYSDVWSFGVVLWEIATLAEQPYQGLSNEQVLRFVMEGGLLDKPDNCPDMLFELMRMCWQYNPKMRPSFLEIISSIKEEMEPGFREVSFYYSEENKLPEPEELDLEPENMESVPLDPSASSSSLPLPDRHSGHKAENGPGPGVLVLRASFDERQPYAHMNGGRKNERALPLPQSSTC

`O=C(NS(=O)(=O)c1ccc(NCC2CCOCC2)c([N+](=O)[O-])c1)c1ccc(N2CCN(Cc3ccc(C(F)(F)F)cc3-c3ccc(Cl)cc3)CC2)cc1Oc1cnc2[nH]ccc2c1` [A-1210227] was tested. Which residual activity [1] did it give?
The residual activity was 100%.

What about the % Inhibition of Control Specific Binding (Mean n=2) [2] of the same molecule?
The % Inhibition of Control Specific Binding (Mean n=2) was 6.5%.

What about the residual activity [3] of the same molecule?
Its residual activity is 100%.

And the residual activity [4]?
Its residual activity is 82%.

And the inhibition [5]?
Its inhibition is -6.07%.

And the residual activity [6]?
Its residual activity is 95%.

What about the residual activity [7] of the same molecule?
Its residual activity is 100%.

What about the residual activity [8] of the same molecule?
The residual activity was 98%.

And the % Inhibition of Control Specific Binding (Mean n=2) [9]?
The % Inhibition of Control Specific Binding (Mean n=2) was 5.3%.

And the residual activity [10]?
Its residual activity is 98%.

And the residual activity [11]?
The residual activity was 77%.

And the residual activity [12]?
Its residual activity is 100%.

And the residual activity [13]?
The residual activity was 100%.

And the residual activity [14]?
The residual activity was 100%.

And the residual activity [15]?
Its residual activity is 91%.

And the residual activity [16]?
The residual activity was 94%.

And the residual activity [17]?
The residual activity was 100%.

And the residual activity [18]?
Its residual activity is 100%.

What about the residual activity [19] of the same molecule?
Its residual activity is 87%.

What about the residual activity [20] of the same molecule?
Its residual activity is 100%.

And the residual activity [21]?
The residual activity was 96%.

What about the residual activity [22] of the same molecule?
Its residual activity is 100%.

What about the inhibition [23] of the same molecule?
Its inhibition is 17.9%.

What about the residual activity [24] of the same molecule?
The residual activity was 85%.

And the residual activity [25]?
The residual activity was 98%.

And the residual activity [26]?
The residual activity was 100%.

And the residual activity [27]?
Its residual activity is 99%.

What about the residual activity [28] of the same molecule?
The residual activity was 88%.

What about the residual activity [29] of the same molecule?
Its residual activity is 100%.

And the inhibition [30]?
Its inhibition is 8.67%.

What about the residual activity [31] of the same molecule?
Its residual activity is 63%.

For `CO[C@H]1CC[C@H](CNc2ccc(S(=O)(=O)NC(=O)c3ccc(N4CCN(CC5=C(c6ccc(Cl)cc6)CC(C)(C)CC5)CC4)cc3Oc3cnc4[nH]ccc4c3)cc2[N+](=O)[O-])CC1` [A-1211212], which residual activity [1] is on record?
Its residual activity is 88%.

And the % Inhibition of Control Specific Binding (Mean n=2) [2]?
The % Inhibition of Control Specific Binding (Mean n=2) was 13.3%.

What about the residual activity [3] of the same molecule?
The residual activity was 100%.

What about the residual activity [4] of the same molecule?
The residual activity was 83%.

And the inhibition [5]?
The inhibition was 4.59%.

And the residual activity [6]?
The residual activity was 85%.

What about the residual activity [7] of the same molecule?
The residual activity was 100%.

What about the residual activity [8] of the same molecule?
Its residual activity is 83%.

And the % Inhibition of Control Specific Binding (Mean n=2) [9]?
The % Inhibition of Control Specific Binding (Mean n=2) was 4.7%.

And the residual activity [10]?
Its residual activity is 94%.

And the residual activity [11]?
Its residual activity is 72%.

And the residual activity [12]?
Its residual activity is 100%.

And the residual activity [13]?
Its residual activity is 88%.

And the residual activity [14]?
Its residual activity is 100%.

What about the residual activity [15] of the same molecule?
Its residual activity is 68%.

And the residual activity [16]?
Its residual activity is 67%.

And the residual activity [17]?
Its residual activity is 100%.

What about the residual activity [18] of the same molecule?
Its residual activity is 73%.

What about the residual activity [19] of the same molecule?
The residual activity was 78%.

And the residual activity [20]?
Its residual activity is 87%.

And the residual activity [21]?
Its residual activity is 96%.

And the residual activity [22]?
The residual activity was 100%.

And the inhibition [23]?
The inhibition was 23.6%.

And the residual activity [24]?
Its residual activity is 66%.

And the residual activity [25]?
Its residual activity is 4.4%.

And the residual activity [26]?
The residual activity was 82%.

And the residual activity [27]?
Its residual activity is 74%.

And the residual activity [28]?
Its residual activity is 65%.

And the residual activity [29]?
Its residual activity is 82%.

What about the inhibition [30] of the same molecule?
Its inhibition is 7.56%.

What about the residual activity [31] of the same molecule?
The residual activity was 100%.
